Here are results for three compounds from patent US20240181092A1, “DIAGNOSTIC METHODS OF PROSTATE CANCER” (NOVARTIS AG, priority 2021, published 2024).

For data set [1] the following is noted: cited from earlier work.
For data set [2], the target named is T1, PSMA (Homo sapiens, UniProt Q04609). Set-up: The [^18F]CTT1057 Phase-I study in 20 prostate cancer patients; from tissue; host or cells: tumour lesions in prostate cancer patients, imaged in vivo by PET; results quoted from Behr et al 2019 and Behr et al 2017. The note with it: cited from earlier work.
T1 sequence (Q04609 whole entry): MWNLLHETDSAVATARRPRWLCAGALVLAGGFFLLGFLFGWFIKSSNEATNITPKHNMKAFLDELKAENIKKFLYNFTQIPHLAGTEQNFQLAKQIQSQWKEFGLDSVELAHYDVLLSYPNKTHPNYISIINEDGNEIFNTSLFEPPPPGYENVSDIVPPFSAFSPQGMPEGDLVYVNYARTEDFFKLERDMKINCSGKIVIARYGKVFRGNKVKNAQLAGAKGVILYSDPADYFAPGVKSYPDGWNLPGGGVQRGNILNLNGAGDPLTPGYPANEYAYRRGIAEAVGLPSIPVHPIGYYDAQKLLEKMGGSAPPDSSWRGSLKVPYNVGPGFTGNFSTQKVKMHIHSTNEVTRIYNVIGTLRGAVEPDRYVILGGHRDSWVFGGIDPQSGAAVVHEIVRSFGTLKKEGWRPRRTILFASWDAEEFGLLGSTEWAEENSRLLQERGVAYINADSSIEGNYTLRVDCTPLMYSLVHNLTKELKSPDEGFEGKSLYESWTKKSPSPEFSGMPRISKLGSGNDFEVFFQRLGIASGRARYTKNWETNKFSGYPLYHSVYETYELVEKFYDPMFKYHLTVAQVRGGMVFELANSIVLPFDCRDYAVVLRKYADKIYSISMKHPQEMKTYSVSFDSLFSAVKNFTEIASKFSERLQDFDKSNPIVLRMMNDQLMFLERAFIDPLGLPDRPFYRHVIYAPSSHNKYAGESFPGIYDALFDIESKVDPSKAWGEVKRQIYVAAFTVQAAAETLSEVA
For data set [3] the following is noted: human dosimetry, Phase I study; cited from earlier work.
The conditions of data set [4]: Phase I, 20 prostate cancer patients (n=5 primary staging, n=15 mCRPC), approx. 370 MBq i.v.; cited from earlier work.
The conditions of data set [5]: versus urea-based PET compounds; cited from earlier work.
Data set [6] has as its target T1, PSMA. The settings on record: phosphoramidate scaffold, irreversible binding; cited from earlier work.
Data set [7] can be described thus: Human dosimetry in the Phase I study. Type of data set: in vivo. The note with it: i.v. administration of 370 MBq. The text has this:
For PET diagnostic radiopharmaceuticals, only a single administration is required, usually intravenously. The investigational PET radiopharmaceutical [^18F]CTT1057 will be administered accordingly, as a single intravenous (i.v.) dose of approximately 370 MBq (266-407 MBq). […] Eur J Nucl Med Mol Imaging; 42:328-54). Human dosimetry was studied in the Phase I study. The effective dose was estimated at 0.023±0.007 mSv/MBq, which is in line as well with the effective dose of the commercial product [18F]FDG (0.019 mSv/MBq) according to the EANM guideline (Boellaard R, Delgado-Bolton R, Oyen WJG, et al (2015) FDG PET/CT: EANM procedure guidelines for tumour imaging: version 2.0. Eur J Nucl Med Mol Imaging; 42:328-54) and in other publications (0.020-0.025 mSv/MBq) (Kaushik A, Jaimini A, Tripathi M, et al (2015) Estimation of radiation dose to patients from (18) FDG whole body PET/CT investigations using dynamic PET scan protocol. Indian J Med Res; 142:721-31), as well as the effective dose of other PSMA PET agents (Behr SC, Aggarwal R, VanBrocklin HF, et al (2019) Phase I Study of CTT1057, an 18F-Labeled Imaging Agent with Phosphoramidate Core Targeting Prostate-Specific Membrane Antigen in Prostate Cancer. J Nucl Med; 60(7):910-6). The radiation dose estimated from an i.v. administration of 370 MBq of [18F]CTT1057 is 8.51 mSV. […]

For the next data set, the system named is prostate cancer tumors. The note with it: cited from earlier work.
For data set [8] the following is noted: retrospective analysis of 1007 participants; cited from earlier work.

“Also recorded” adds a separate entry of the source. Like-named read-outs stand apart in the source and are kept apart here.

Take `OC[C@H]1OC(O)[C@H]([18F])[C@@H](O)[C@@H]1O` (stereo partly shown) [[18F]FDG, [18F]Fluorodeoxyglucose]: the effective dose in [1] (according to the EANM guideline) was 0.019 mSv/MBq; in data set [1] (other publications (Kaushik et al 2015)), 0.020-0.025 mSv/MBq.

With `O=C(O)CC[C@H](NP(=O)(O)OCCC[C@H](NC(=O)CC[C@H](NC(=O)CCCCCNC(=O)c1ccc([18F])cc1)C(=O)O)C(=O)O)C(=O)O` [[^18F]CTT1057], at PSMA [2] (Phase I study), the “sensitivity of detection of metastatic lesions versus conventional imaging” value is given as “higher sensitivity”. Also, at PSMA [2] (another smaller study (Behr et al 2017)), the “image quality versus [68Ga]Ga-PSMA-11 PET” value was “qualitatively similar”. The “image quality on a Visual Analog Scale (VAS) of 1 to 100” value on PSMA [2] (approx. 370 MBq i.v., 1=nondiagnostic, 100=perfect study, rated by 2 Nuclear Medicine physicians) is 76±5.4. Also, the effective dose in data set [3] is 0.023±0.007 mSv/MBq. Further, the safety and tolerability result in data set [4] is “acceptable safety profile without any radiotracer-related adverse reactions; also recorded: safe and well tolerated; also recorded: acceptable safety profile, without any radiotracer-related adverse reactions; also recorded: study has shown an acceptable safety profile without any radiotracer-related”. For the same compound, the “exposure to kidneys and salivary glands” value in data set [5] is “lower exposure to kidneys and salivary glands”. In addition, on PSMA [6], the “binding affinity to PSMA” value is given as “irreversibly binds to PSMA with high nanomolar affinity”. In data set [7], the “radiation dose estimated from an i.v. administration” value is reported as 8.51 mSV.

Take `O=C([O-])CN(CCN(CC(=O)[O-])Cc1cc(CCC(=O)NCCCCCC(=O)NCCCC[C@H](NC(=O)N[C@@H](CCC(=O)O)C(=O)O)C(=O)O)ccc1[O-])Cc1cc(CCC(=O)O)ccc1[O-].[68Ga+3].[OH3+]` [[^68Ga]Ga-PSMA-11]: in the data set with prostate cancer tumors (after radical prostatectomy, PSA <2.0 ng/ml, per-patient and per-region basis (Calais et al 2018)), the “detection rates versus [18F]Fluciclovine” value is “superior”. The “overall detection rate for prostate cancer recurrence versus [18F]Fluciclovine” value with prostate cancer tumors (larger prospective head-to-head study (Pernthaler et al 2019)) is listed as “no statistical differences”. Also, the “tolerability, adverse events following infusion” value in [8] is “well tolerated with no adverse events following infusion”.
